Experimental data taken from PubChem BioAssay AID463229 (Broad Institute, 2010).
Activity calls are given as the source filed them.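 How the source made its calls: active means compounds raising the signal whose fitted half-maximal concentration is at or below their top tested dose (cut at about 25 µM in these data); inconclusive means flat fit at 30 to 70% activity, or a poor fit; inactive means the rest.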

Tested on: INS-1E rat beta cells, no cytokines, CellTiter-Glo ATP, 48 h
Assay: cytokine-free beta-cell viability effect – INS-1E rat cells, ATP luminescence, cherry pick, counter-screen for beta-cell apoptosis protection project, dose response (AID 463229)

Row | Compound | AC50
1 | CSc1nc(N)nc2c1ncn2CC(=O)N1CCN(Cc2c(C)cc(C)cc2C)CC1 | 2.65 µM
2 | COc1cc(CSc2nnnn2-c2ccc(C)cc2)cc(OC)c1OC | 4.46 µM
3 | CN(CC1CCCO1)S(=O)(=O)c1ccc(C(=O)Nc2nc(-c3ccccn3)cs2)cc1 (configuration not stated) | 10.4 µM
4 | O=C1C(=O)c2ccc(-c3ccccc3)cc2-c2ccccc21 | 1.1 µM
5 | Cc1ccc(NC(=O)COc2ccc(N(C)C(=O)C(C)(C)C)cc2)cc1S(=O)(=O)N1CCCCC1 | 5.78 µM
6 | N#CC(C#N)=C1C=CC=CN1/C(=C\c1ccco1)C(=O)c1ccccc1 | 13 µM
7 | Cc1nc2ccccc2cc1OCc1ccc(F)cc1 | 6.6 µM
8 | C=CC[n+]1c(/C=C2\C=Cc3cc(C)ccc3N2CC)ccc2ccccc21 | < 0.195 µM
9 | Cc1ccc(N=Cc2c(C)[nH]n(-c3nc4ccccc4[nH]3)c2=O)cc1 | 1.85 µM
10 | COc1ccc(C(=O)N/N=C/c2sc3ccccc3c2O)cc1 | 7.83 µM
11 | CC(=O)N1CCCc2cc(S(=O)(=O)N3CCCC(C(=O)N4CCN(c5cccc(Cl)c5)CC4)C3)ccc21 (configuration not stated) | 7.05 µM
12 | CCCC(=O)NC(c1ccc(C)cc1)c1ccc2cccnc2c1O (configuration not stated) | 1.99 µM
13 | Oc1c(CN2CCN(c3ccccn3)CC2)cc(Cl)c2cccnc12 | 5.4 µM
14 | CCN(CC)c1ccc(/C=N/N(c2ccccc2)c2ccccc2)c(O)c1 | 4.58 µM
15 | Cc1oc2c(c1C(=O)N1CCOCC1)C(=O)c1ccccc1C2=O | 8.12 µM
16 | O=c1c2ccccc2nc(N/N=C/c2c(O)ccc3ccccc23)n1O | 3.65 µM
17 | C=CCNC(=S)N/N=C(\C)c1ccccn1 | 1.22 µM
18 | CCCCC(=O)NC(c1ccccc1OC)c1ccc2cccnc2c1O (configuration not stated) | 2.13 µM
19 | O=C(NCc1ccccc1)C1=C[C@H](c2csc3ccccc23)C[C@H](OCCCCO)O1 | 6.75 µM
20 | COc1ccc(NCc2nnc(SCC(=O)Nc3nc(-c4ccccc4)cs3)n2-c2ccccc2)cc1 | 7 µM
21 | Cc1sc2ncnc(NCC3COc4ccccc4O3)c2c1C (configuration not stated) | 2.34 µM
22 | CC(C)NC(=S)N/N=C/c1cc(Br)ccc1O | 12.6 µM

Row | Compound | AC50
23 | CN(C)S(=O)(=O)c1ccc(Nc2nc(C3CC3)nc3c2nnn3Cc2ccccc2Cl)cc1 | 7 µM
24 | C=C[C@H](CC(C)C)N(Cc1ccccc1)S(=O)(=O)N(Cc1ccccc1)[C@@H](C=C)CC(C)C | 5.72 µM
25 | Cc1cc(/C=N/n2cnnc2)c(C)n1-c1ccc(OCc2ccc(Cl)cc2Cl)cc1 | 1.71 µM
26 | Cc1ccc(-c2nc(N/N=C/c3cccnc3)c3ccccc3n2)cc1 | 9.02 µM
27 | O=C(N/N=C\c1cc(Cl)ccc1O)c1ccc(S(=O)(=O)N2CCCCC2)cc1 | 6.44 µM
28 | CC(C)(C)c1ccc(NNC(=O)C2CCC2)cc1 | 9.64 µM
29 | COc1ccc(C(NC(C)=O)c2cc(Cl)c3cccnc3c2O)cc1OC (configuration not stated) | 7.62 µM
30 | CCOC(=O)c1sc(NC(=O)c2c(C)nn(Cc3ccccc3)c2C)cc1C | > 26 µM (inactive)
31 | Cc1c2ccncc2c(C)c2c1[nH]c1ccccc12 | 5.21 µM
32 | CSc1ccccc1OCc1cc(C(=O)N2CCc3c(Cl)cccc3C2)no1 | 6.99 µM
33 | CC(C)n1cnc2c(NCc3ccccc3)cc(N[C@H](C)CO)cc21 | 13.7 µM
34 | O=C(Nc1nc2ccc([N+](=O)[O-])cc2s1)c1ccc(S(=O)(=O)N2CCCc3ccccc32)cc1 | 2.63 µM
35 | O=C(CSc1nnc(Cn2nnc3ccccc32)o1)N(Cc1ccc(F)cc1)c1ccccc1 | 7.94 µM
36 | O=C(/C=C/c1ccc(F)cc1)NC(=S)NNC(=O)c1cnccn1 | 5.29 µM
37 | CC1=CC2/C=C(\C)CCC(O)C(O)/C=C/C(=O)C23C(=O)NC(CC(C)C)C3C1C (configuration not stated) | 7.48 µM
38 | CN(C1=C(NC(=O)c2ccc(Cl)cc2)C(=O)c2ccccc2C1=O)c1ccccc1 | 13 µM
39 | CCCCCc1ccc(OCCCC[n+]2ccccc2)c(CCCCC)c1 | 3.3 µM
40 | CCCCCc1ccc(-c2cn(CN3C(=O)c4ccccc4C3=O)nn2)cc1 | 1.23 µM
41 | O=C(Nc1nc(-c2ccccn2)cs1)c1cccc(-n2cnnn2)c1 | 7.05 µM
42 | CNC(=O)c1cc(Oc2ccc(NC(=O)Nc3ccc(Cl)c(C(F)(F)F)c3)cc2)ccn1 | 7.39 µM
43 | O=C(CN(Cc1ccco1)Cc1ccco1)Nc1cc(S(=O)(=O)N2CCCCC2)ccc1Cl | 7.47 µM
44 | CCS(=O)(=O)c1ncc(Cl)c(C(=O)Nc2ccc(S(=O)(=O)N(C)c3ccccc3)cc2)n1 | 6.63 µM

Row | Compound | AC50
45 | COc1cc(SC)ccc1C(=O)Nc1nc2ccccc2[nH]1 | 1.21 µM
46 | O=C(Oc1c(CN2CCOCC2)cc(Cl)c2cccnc12)c1ccccc1 | 17.1 µM
47 | COc1cc(C)c(C(=O)CC(=O)c2c(C)cc(OC)cc2C)c(C)c1 | 13.7 µM
48 | CCn1c(Cl)c(C=O)s/c1=N\S(=O)(=O)c1ccccc1 | 6.63 µM
49 | COc1ccc2nc3cc(Cl)ccc3c(Nc3cc(CN4CCCC4)c(O)c(CN4CCCC4)c3)c2n1 | 19.5 µM
50 | CCOC(=O)c1cnc(-n2nc(C)cc2C)nc1Nc1ccc(O)cc1 | 1.41 µM
51 | CCC[C@@H](CN1CCC[C@H]1CN1C(N)=NC[C@@H]1Cc1ccccc1)N1C[C@@H]([C@H](C)CC)N(CCCC2CCCC2)C1=N | 7.72 µM
52 | O=S(=O)([N-]c1nc2ccccc2nc1-[n+]1ccc(Cc2ccccc2)cc1)c1ccc(Br)s1 | 12.9 µM
53 | CCOc1ccc(S(=O)(=O)N(C(=O)c2ccco2)c2cc3sc(=O)oc3c3ccccc23)cc1 | 12.7 µM
54 | O=C(c1cc(-c2ccccc2Cl)nc2ccccc12)N1CCN(c2ccccn2)CC1 | 4.44 µM
55 | O=C(c1cc(COc2cccc3cnccc23)on1)N1CCCC(CCCO)C1 (configuration not stated) | 2.04 µM
56 | c1ccc2c(c1)OCC(CNc1ncnc3sccc13)O2 (configuration not stated) | 1.6 µM
57 | Clc1ccc2c(N/N=C/c3cccc(Br)c3)ccnc2c1 | 10.7 µM
58 | Nc1nc(-c2ccccn2)nc(N)c1Cc1c(F)cccc1Cl | 8.86 µM
59 | COc1ccc(C(=O)N(C)c2ccccc2C(=O)NCCc2ccccc2)cc1 | 7.85 µM
60 | O=C(Nc1nc2c(F)cc(F)cc2s1)c1ccccn1 | 6.37 µM
61 | CCN(CC)S(=O)(=O)c1cc([N+](=O)[O-])ccc1NNC(=O)Nc1ccc(Cl)c(Cl)c1 | 6.54 µM
62 | COc1cnc(-c2ccccn2)nc1Oc1ccc(C(C)(C)C)cc1 | 13.7 µM
63 | CCC(C)(C)c1ccc(OCCCC[n+]2ccccc2)c(C(C)(C)CC)c1 | 2.27 µM
64 | O=C(Nc1ccc(Cl)cc1)Nc1nnc(-c2ccncc2)s1 | 4.78 µM
65 | Cc1cc(=O)[nH]c(N/N=C/c2ccccn2)n1 | 5.21 µM
66 | Cc1ccccc1/C=N/Nc1ccnc2cc(Cl)ccc12 | 6.91 µM

Row | Compound | AC50
67 | Cc1ccc(-c2nn(-c3ccccc3)cc2/C=C/C(=O)Nc2cccc(S(N)(=O)=O)c2)cc1 | 2.75 µM
68 | O=c1c2ccccc2nc(COc2ccccc2)n1/N=C/c1ccc(O)cc1O | 15.9 µM
69 | N#C/C(=C/c1ccc(N2CCCCCC2)o1)c1ccc(Cl)cc1 | 24.3 µM
70 | CCCn1c(Nc2nc3ccccc3n2C)nc2ccccc21 | 7.26 µM
71 | CC(C)Cn1c(N)c(C(=O)CSc2ccc3c(c2)OCCO3)c(=O)n(C)c1=O | 4.85 µM
72 | O=C(CCl)N(c1ccccc1)C1CCCCC1 | 5.56 µM
73 | CCCCC(CC)CN1C(=O)/C(=C/c2ccncc2)SC1=S (configuration not stated) | > 26 µM (inactive)
74 | CCC(/C=C1\Sc2ccc(OC)cc2N1CC)=C\c1sc2ccc(OC)cc2[n+]1CCCS(=O)(=O)[O-] | 5.74 µM
75 | CC(=O)NC(c1cccs1)c1cc([N+](=O)[O-])c2cccnc2c1O (configuration not stated) | 10.9 µM
76 | COc1ccc(/C=C2\CN(Cc3ccccc3)C/C(=C\c3ccc(OC)c(O)c3)C2=O)cc1O | 4.75 µM
77 | COc1cc(N/N=C/c2ccccc2O)ncn1 | 16.2 µM
78 | NC1=NC[C@H](Cc2ccc(O)cc2)N1CCCCC1CCCCC1 | 2.34 µM
79 | COC1=C(Nc2ccccc2)C(=O)c2ccccc2C1=O | 17.4 µM
80 | CC1CN(CC(O)COC(c2ccc(Cl)cc2)c2ccc(Cl)cc2)CC(C)O1 (configuration not stated) | 14.2 µM
81 | CC(=O)c1ccc(N2CCN(S(=O)(=O)c3ccc4c(c3)CC(C)N4C(C)=O)CC2)cc1 (configuration not stated) | 8.54 µM
82 | CCOc1ccc(-n2c(-c3ccc(Br)cc3)c[n+]3c2CCCCC3)cc1 | 1 µM
83 | c1ccc(-c2nnc(-c3ccccn3)nc2NC2CCCCC2)cc1 | 3.52 µM
84 | Oc1ccccc1/C=N/Nc1nccnc1Cl | 3.97 µM
85 | COc1ccc2c(c1)C(=O)[C@H](O)[C@@H](c1ccc(OC)c(Br)c1)O2 | 7.97 µM
86 | COc1ccc(C(NC(C)=O)c2cc(Cl)c3cccnc3c2O)cc1 (configuration not stated) | 7.34 µM
87 | Oc1ccccc1/C=N/Nc1ncc(Br)cn1 | 19.7 µM
88 | Cc1nn(C)c(C)c1CN(C)S(=O)(=O)c1ccc2ccccc2c1 | 3.02 µM

Row | Compound | AC50
89 | O=C1C(Cl)=C(NCCN2CCCCC2)C(=O)c2ccccc21 | 14.1 µM
90 | N#Cc1ccc(-c2csc(NNC(=O)c3ccc(Br)cc3)n2)cc1 | 15.6 µM
91 | CCCCCCn1c(=O)c(C(=O)Nc2ncccc2C)c(O)c2ccccc21 | 5.5 µM
92 | O=C(Nc1ccc(Cl)cc1)Nc1nnc(CSCc2ccc(Cl)cc2)s1 | 6.74 µM
93 | COc1ccc2cc1Oc1ccc(cc1)C[C@H]1c3cc(c(OC)cc3CCN1C)Oc1c(O)c(OC)cc3c1[C@H](C2)N(C)CC3 | 7.07 µM
94 | CC(=O)Nc1ccc(S(=O)(=O)NC2=C(N3CCN(c4ccc(F)cc4)CC3)C(=O)c3ccccc3C2=O)cc1 | 7.51 µM
95 | CCn1c(=O)c(C(=O)Nc2nc3ccccc3[nH]2)c(O)c2ccccc21 | 6.03 µM
96 | O=C(NCc1nc(-c2ccc(C(F)(F)F)cc2)no1)Nc1cc(Cl)cc(Cl)c1 | 6.94 µM
97 | O=C(C[C@@H]1C/C=C/CC[C@H](Cc2ccc(F)cc2)C(=O)OC[C@@H](Cc2ccccc2)NC1=O)N[C@H](CO)Cc1ccccc1 | 7.82 µM
98 | COc1ccccc1NC1=C(N2CCCCC2)C(=O)c2ccccc2C1=O | 2.21 µM
99 | COc1ccc(C2C(O)C(c3c[nH]c4ccccc34)=NN2C(=O)CCl)cc1 (configuration not stated) | 2.9 µM
100 | C#CC[N+](C)(C)CCCCCCCCCCCC | 6.1 µM
101 | CCOc1ccc(Nc2nc(Cc3nnc(SCC(=O)c4ccc(C)c(C)c4)o3)cs2)cc1 | 10.6 µM
102 | CC(C)COCc1ccc(O)c2ncccc12 | 8.01 µM
103 | CCOC(=O)N1CCN(S(=O)(=O)c2ccc(C(=O)NNc3nc4cc(C)cc(C)c4s3)cc2)CC1 | 6.01 µM
104 | CC(=O)c1cccc(N=c2scc(-c3ccc(S(=O)(=O)N4CCOCC4)cc3)n2CCO)c1 | 3.22 µM
105 | CNc1ccc2oc(C[C@H]3O[C@@]4(CC[C@H]3C)O[C@H]([C@H](C)C(=O)c3ccc[nH]3)[C@H](C)C[C@H]4C)nc2c1C(=O)O | 1.32 µM
106 | CC(=O)OC1COC(OC2C(O)C(C)OC(OC3C(OC4CCC5(C)C(CCC6(C)C5CC=C5C7CC(C)(C)CCC7(C(=O)O)CCC56C)C4(C)CO)OCC(O)C3O)C2O)C(O)C1OC(C)=O (configuration not stated) | 7.09 µM
107 | O=C(N/N=C/c1cc(Br)cc(Br)c1O)c1ccncc1 | 7.34 µM
